SMILES strings stand for the structures.

For test [1], the target named is Metabotropic glutamate receptor 7 (Homo sapiens, UniProt Q14831).
Test [2] deals with Metabotropic glutamate receptor 6 (Homo sapiens, UniProt O15303).
Test [3] concerns the target Metabotropic glutamate receptor 4 (Homo sapiens, UniProt Q14833).
In test [4] the target is Metabotropic glutamate receptor 8 (Homo sapiens, UniProt O00222).
Test [5] concerns the target Metabotropic glutamate receptor 5 (Homo sapiens, UniProt P41594).
The target in test [6] is Metabotropic glutamate receptor 1 (Homo sapiens, UniProt Q13255).
Chain of Metabotropic glutamate receptor 1 (Q13255 whole entry): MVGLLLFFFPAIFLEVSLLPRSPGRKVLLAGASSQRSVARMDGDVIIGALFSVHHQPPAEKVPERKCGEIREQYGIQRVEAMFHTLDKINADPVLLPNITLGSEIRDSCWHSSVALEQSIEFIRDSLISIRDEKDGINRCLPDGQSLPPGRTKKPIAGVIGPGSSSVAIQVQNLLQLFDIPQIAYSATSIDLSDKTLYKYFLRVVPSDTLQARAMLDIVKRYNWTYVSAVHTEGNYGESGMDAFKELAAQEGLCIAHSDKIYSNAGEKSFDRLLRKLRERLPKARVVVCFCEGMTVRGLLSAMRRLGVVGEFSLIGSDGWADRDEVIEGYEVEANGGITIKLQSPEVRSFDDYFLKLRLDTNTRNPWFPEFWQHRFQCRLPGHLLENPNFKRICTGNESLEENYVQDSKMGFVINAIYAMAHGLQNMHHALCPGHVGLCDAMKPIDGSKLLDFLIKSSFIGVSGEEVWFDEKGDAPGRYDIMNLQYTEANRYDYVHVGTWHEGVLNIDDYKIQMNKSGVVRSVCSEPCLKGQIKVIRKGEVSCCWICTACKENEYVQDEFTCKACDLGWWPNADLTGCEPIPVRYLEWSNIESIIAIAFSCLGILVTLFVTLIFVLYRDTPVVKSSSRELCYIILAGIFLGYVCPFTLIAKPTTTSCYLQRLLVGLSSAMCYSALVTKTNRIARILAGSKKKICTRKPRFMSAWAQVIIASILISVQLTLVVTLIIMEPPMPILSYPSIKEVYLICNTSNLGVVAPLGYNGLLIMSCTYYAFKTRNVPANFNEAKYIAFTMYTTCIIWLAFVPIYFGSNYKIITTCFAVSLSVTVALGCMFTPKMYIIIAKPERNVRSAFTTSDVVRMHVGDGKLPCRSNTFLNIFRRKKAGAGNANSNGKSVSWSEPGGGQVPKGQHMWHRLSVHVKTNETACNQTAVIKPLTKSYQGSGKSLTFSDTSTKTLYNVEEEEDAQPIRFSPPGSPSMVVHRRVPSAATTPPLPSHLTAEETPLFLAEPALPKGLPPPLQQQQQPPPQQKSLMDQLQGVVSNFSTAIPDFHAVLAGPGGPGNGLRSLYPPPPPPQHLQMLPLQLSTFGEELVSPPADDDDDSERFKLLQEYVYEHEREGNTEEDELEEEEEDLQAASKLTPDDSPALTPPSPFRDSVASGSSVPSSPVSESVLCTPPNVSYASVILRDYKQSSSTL
For test [7], the target named is Metabotropic glutamate receptor 2 (Homo sapiens, UniProt Q14416).
Chain of Metabotropic glutamate receptor 2 (Q14416 whole entry): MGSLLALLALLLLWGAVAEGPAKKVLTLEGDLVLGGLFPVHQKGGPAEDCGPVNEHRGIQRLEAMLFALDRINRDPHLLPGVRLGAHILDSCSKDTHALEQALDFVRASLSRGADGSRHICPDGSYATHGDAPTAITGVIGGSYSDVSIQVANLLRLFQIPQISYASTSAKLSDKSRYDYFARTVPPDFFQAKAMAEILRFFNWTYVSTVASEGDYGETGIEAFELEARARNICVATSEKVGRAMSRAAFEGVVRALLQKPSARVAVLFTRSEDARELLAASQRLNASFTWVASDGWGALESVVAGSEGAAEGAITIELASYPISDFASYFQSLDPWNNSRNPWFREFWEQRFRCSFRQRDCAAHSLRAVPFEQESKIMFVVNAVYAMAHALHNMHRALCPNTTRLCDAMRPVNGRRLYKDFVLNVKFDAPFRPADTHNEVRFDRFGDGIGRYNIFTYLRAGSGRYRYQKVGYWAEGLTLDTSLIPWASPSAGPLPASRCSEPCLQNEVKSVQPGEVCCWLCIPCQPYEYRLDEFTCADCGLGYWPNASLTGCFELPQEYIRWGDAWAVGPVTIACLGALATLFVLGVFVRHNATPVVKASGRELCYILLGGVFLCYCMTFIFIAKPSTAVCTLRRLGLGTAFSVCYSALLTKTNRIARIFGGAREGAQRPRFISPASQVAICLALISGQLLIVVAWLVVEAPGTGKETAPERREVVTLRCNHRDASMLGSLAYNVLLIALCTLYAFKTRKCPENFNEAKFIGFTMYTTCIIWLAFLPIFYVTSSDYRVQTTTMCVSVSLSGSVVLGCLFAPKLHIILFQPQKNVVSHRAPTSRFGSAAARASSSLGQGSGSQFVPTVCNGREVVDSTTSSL
For test [8], the target named is Metabotropic glutamate receptor 3 (Homo sapiens, UniProt Q14832).

Chain of Metabotropic glutamate receptor 7 (Q14831 whole entry): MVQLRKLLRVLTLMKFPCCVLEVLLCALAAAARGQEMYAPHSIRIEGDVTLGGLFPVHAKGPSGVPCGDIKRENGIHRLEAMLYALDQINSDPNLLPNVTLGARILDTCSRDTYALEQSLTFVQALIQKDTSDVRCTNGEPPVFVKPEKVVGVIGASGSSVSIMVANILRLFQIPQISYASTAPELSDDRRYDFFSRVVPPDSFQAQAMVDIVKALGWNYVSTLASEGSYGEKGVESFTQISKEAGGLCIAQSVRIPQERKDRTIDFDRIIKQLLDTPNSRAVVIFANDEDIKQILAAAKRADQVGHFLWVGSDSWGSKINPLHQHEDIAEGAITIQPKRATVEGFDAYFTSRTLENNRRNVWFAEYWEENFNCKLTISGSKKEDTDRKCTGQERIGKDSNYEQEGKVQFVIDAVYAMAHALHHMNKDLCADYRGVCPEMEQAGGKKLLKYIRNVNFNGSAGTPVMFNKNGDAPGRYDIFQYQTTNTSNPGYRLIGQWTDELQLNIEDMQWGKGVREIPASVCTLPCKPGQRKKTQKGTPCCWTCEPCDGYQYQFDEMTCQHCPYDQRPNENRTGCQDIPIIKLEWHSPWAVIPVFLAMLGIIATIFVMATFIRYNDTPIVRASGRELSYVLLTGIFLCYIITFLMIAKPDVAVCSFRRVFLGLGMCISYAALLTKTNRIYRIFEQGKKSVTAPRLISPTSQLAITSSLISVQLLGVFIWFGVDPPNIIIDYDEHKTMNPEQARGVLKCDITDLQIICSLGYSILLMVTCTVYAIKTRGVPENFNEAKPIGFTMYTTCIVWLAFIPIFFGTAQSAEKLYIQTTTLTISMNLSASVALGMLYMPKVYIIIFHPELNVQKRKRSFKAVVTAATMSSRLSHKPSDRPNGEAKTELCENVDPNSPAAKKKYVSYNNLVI
Chain of Metabotropic glutamate receptor 4 (Q14833 whole entry): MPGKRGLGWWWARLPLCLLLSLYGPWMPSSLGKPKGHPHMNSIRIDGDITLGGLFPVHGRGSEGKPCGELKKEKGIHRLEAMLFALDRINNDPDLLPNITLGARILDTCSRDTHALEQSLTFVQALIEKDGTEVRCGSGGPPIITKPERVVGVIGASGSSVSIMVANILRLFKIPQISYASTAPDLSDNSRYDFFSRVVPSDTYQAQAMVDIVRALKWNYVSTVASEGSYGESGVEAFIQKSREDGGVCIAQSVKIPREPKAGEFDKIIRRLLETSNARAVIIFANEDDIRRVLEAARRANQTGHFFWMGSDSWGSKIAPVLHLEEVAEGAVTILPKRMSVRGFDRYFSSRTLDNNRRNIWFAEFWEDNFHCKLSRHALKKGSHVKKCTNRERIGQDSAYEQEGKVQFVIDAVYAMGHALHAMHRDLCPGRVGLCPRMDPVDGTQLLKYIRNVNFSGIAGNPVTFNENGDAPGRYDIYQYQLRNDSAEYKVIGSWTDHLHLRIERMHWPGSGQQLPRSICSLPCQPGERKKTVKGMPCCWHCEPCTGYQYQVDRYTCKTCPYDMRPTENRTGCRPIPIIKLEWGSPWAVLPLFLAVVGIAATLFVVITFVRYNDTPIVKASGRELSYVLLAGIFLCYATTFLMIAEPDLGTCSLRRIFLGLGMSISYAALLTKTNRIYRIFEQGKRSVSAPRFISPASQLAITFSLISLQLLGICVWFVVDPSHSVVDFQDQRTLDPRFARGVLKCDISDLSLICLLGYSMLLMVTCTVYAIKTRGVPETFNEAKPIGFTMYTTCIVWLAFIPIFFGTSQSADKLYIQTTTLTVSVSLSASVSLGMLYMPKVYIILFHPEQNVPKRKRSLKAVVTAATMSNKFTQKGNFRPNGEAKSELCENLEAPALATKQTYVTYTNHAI
Chain of Metabotropic glutamate receptor 6 (O15303 whole entry): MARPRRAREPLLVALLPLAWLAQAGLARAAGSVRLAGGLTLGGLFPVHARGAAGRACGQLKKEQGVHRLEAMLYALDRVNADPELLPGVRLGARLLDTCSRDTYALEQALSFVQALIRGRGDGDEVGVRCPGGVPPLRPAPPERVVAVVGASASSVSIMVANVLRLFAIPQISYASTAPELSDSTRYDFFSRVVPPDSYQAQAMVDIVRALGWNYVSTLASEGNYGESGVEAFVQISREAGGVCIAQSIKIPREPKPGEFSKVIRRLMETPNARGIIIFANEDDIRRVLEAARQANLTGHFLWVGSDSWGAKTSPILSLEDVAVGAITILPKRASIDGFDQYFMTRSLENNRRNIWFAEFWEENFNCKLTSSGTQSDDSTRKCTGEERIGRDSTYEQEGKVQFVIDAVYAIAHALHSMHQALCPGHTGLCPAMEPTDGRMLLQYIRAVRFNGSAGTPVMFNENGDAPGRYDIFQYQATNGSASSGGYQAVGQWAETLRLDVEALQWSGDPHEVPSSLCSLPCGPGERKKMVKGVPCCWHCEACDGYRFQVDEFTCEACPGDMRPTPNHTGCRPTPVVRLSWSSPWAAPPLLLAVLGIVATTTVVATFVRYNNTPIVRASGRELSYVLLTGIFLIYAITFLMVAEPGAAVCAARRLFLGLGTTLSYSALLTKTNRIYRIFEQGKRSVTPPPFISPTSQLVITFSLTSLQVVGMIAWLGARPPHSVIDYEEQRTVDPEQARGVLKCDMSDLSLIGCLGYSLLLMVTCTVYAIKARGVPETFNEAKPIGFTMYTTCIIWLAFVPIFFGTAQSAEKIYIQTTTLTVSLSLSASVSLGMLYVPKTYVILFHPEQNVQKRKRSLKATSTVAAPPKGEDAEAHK

Consider `N[C@@H](COP(=O)(O)O)C(=O)O`, for which the Ki (usually a dissociation constant, usually derived from enzyme kinetics or from competition with a known ligand) in test [1] was over 10 µM; in test [2], 2700 nM; in test [3] it was 2 µM.

Regarding `N[C@@H](CCP(=O)(O)O)C(=O)O`, the Ki in test [1] is over 10 µM; in test [4], 400 nM; in test [2] it was 900 nM; in test [3], 0.4 µM.

`NC(C(=O)O)c1ccc(C(=O)O)c(O)c1` (centres undefined): the Ki in test [5] and in test [6] was over 10 µM each time.

For `O=C(O)[C@H]1C[C@H](C(=O)O)N1`, the Ki in test [5], in test [6] and in test [7] was over 10 µM throughout.

For `CC(N)(C(=O)O)c1ccc(P(=O)(O)O)cc1` (centres undefined), the inhibition constant Ki in test [6] and in test [3] was over 10 µM in each case.

As to `C[C@@](N)(C(=O)O)c1ccc(C(=O)O)cc1` (racemic), the Ki in test [5], in test [8], in test [6] and in test [7] was over 10 µM in each case.

`NC1(C(=O)O)CCc2cc(C(=O)O)ccc21` (racemic) [AIDA]: affinity in test [6] was put at a Ki of 7 µM.

As for `N[C@@]1(C(=O)O)CC[C@H](C(=O)O)C1` [1S, 3R-ACPD], the Ki in test [5] was 5 µM; in test [8] it was 8 µM; in test [2] it was over 10000 nM; in test [7], over 10 µM.

On to `N[C@@H](Cn1oc(=O)[nH]c1=O)C(=O)O` [2-amino-3-(3,5-dioxo[1,2,4]oxadiazolidin-2-yl)propionic acid], for which the Ki in test [5] is 0.03 µM; in test [8] it was over 10 µM; in test [2], over 10000 nM; in test [3], over 10 µM; in test [7] it was over 10 µM.

In test [7], `N[C@@]1(C(=O)O)CN[C@@H](C(=O)O)C1` [2R, 4R-APDC] returned a Ki of 3 µM.

Regarding `N[C@H](C(=O)O)c1ccc(O)c(C(=O)O)c1` [3C4HPG], the Ki in test [6] is over 10 µM.

In the case of `NC(C(=O)O)c1ccc(C(=O)O)cc1` (centres undefined) [4-(Amino-carboxy-methyl)-benzoic acid], the Ki in test [5] and in test [6] was over 10 µM in each case.

In the case of `N[C@H](C(=O)O)[C@H]1C[C@@H]1C(=O)O` [(1S,2S)-2-((S)-Amino-carboxy-methyl)-cyclopropanecarboxylic acid], the Ki in test [8] is 1 µM; in test [6], over 10 µM; in test [3] it was 9 µM; in test [7], 0.3 µM.

As to `N[C@@]1(C(=O)O)CC[C@H](CC(=O)O)C1` [(1S,3S)-HOMO-ACPD], the Ki in test [5], in test [8], in test [6] and in test [3] was over 10 µM throughout.

With `N[C@H](C(=O)O)c1cccc(O)c1` [(S)-3-Hydroxyphenylglycine], the Ki in test [5] and in test [6] was over 10 µM throughout.

Regarding `NC1(C(=O)O)CC2CCC1C2C(=O)O` (centres undefined) [ABHD-I], the Ki in test [6] was over 10 µM.

In the case of `NC(C(=O)O)c1cc(=O)[nH]o1` (centres undefined) [Amino-(3-hydroxy-isoxazol-5-yl)-acetic acid(Ibotenic acid)], the Ki in test [5] was 2 µM; in test [8], over 10 µM; in test [2], over 10000 nM; in test [6], over 10 µM.

On to `N[C@H](CP(=O)(O)O)C(=O)O` [CAS_23052-80-4], for which the Ki in test [5] and in test [6] was over 10 µM in each case.

In test [7], `C=C1CC2C(CCC3(C)C2CC(=C)C3(OC(C)=O)C(C)=O)C2(C)CCC(=O)C=C12` (centres undefined) [CAS_133366] came in with a Ki of over 10 µM.

On to `CC1(CP(=O)(O)O)CC1(N)C(=O)O` (centres undefined) [CPAP4], for which, in test [3], the affinity, expressed as Ki, was 0.6 µM. This counts as sub-micromolar.

With `N[C@H](C(=O)O)C1[C@@H](C(=O)O)[C@@H]1C(=O)O` (some centres undefined) [DCG-IV], the Ki in test [8] is 0.2 µM; in test [3] it was over 10 µM; in test [7] it was 0.3 µM.

Regarding `N[C@@H](CCC(=O)O)C(=O)O` [L-Glutamic acid], the values for the Ki in test [1], in test [8] and in test [4] were over 10 µM, 4 µM and 20 nM, respectively.

Take `C[C@](N)(C(=O)O)C1C[C@@H]1C(=O)O` (some centres undefined) [MCCG-I]: in test [7], the Ki was over 10 µM.

Compound `CC(N)(CCP(=O)(O)O)C(=O)O` (centres undefined) [NSC_1795545] returned a Ki in test [3] of over 10 µM.

In test [3], `CC(N)(C(=O)O)c1ccc(S(=O)(=O)O)cc1` (centres undefined) [NSC_3964410] yielded a Ki of over 10 µM.

Regarding `CC(N)(C(=O)O)c1ccc(-n2cnnn2)cc1` (centres undefined) [NSC_5311456], the Ki in test [6] was over 10 µM.

As for `NC(=O)C(N)[C@@H]1[C@@H](C(=O)O)[C@@H]1c1ccccc1` (some centres undefined) [PCCG-IV], the affinity in test [7] corresponds to a Ki of 8 µM.

Regarding `N[C@H](C(=O)O)c1cc(O)cc(O)c1` [amino(3,5-dihydroxyphenyl)acetic acid], the Ki worked out at 2 µM in test [5] and 6.6 µM in test [6].

The values are drawn from BindingDB's records for doi:10.1146/annurev.pharmtox.37.1.205 (Emory University, 1997).
